The record followed here is patent US7498421B2, “Degradation fragments” (Medical Research Council, priority 2001, dated 2009).

Data set [1] is described as follows: Light sensitivity of purified fractions (sunlight, HPLC / 1H NMR). The note with it: sunlight for 90 min. Format: physicochemical. As to the method: The chloroform extract was dissolved in 50% (v/v) aqueous and purified by HPLC. Experiments were conducted so as to exclude light from samples. Hypersil reversed-phase C18 (250×7 mm) or Spherisorb ODS (2) reversed-phase columns (250×4.6 mm) were equilibrated with 30% (v/v) aqueous acetonitrile at a flow rate pf 2 mL min^−1 and 1 mL min^−1, respectively. Elution was performed using 30% to 36% aqueous acetonitrile linear gradient at the same flow rates over 8 min. Fractions were monitored at 320 nm and collected manually. The fractions were freeze dried and stored at −80° C. for further analyses. Each fraction was re-dissolved in 50% (v/v) aqueous acetonitrile, re-injected and re-purified using the same conditions to remove impurities from other fractions. To investigate the light sensitivity of the compounds, purified fractions were exposed to sunlight for 90 min after dissolving 50% (v/v) aqueous and analysed by HLPC.

In another data set the test system is porcine carotid artery. Kind of data set: Oxygen consumption of porcine carotid artery rings (Clark oxygen electrode). The note with it: concentration of 4-methyl-3-vinylmaleimide not determined. The procedure: Porcine carotid artery were collected from an abattoir within 30 minutes of death, rinsed and immersed in PSS at 4° C., and immediately transported to the laboratory. Arteries were then trimmed of excess connective tissue and adventitia to be stored in PSS at 4° C. until use. The PSS was changed every 12 hours and the vessels were kept for up to 4 days. The PSS contained the following: 118 mmol/L sodium chloride, 25 mmol/L sodium hydrogen carbonate, 5.76 mmol/L potassium chloride, 2.5 mmol/L calcium chloride, 1.2 mmol/L magnesium sulphate, 0.5 mmol/L monobasic sodium phosphate, and 11.1 mmol/L glucose. The solution was oxygenated by bubbling with 95% oxygen and 5% carbon dioxide to maintain a pH of 7.4.
The rate of the oxygen consumption was determined using a Hansatech Instruments (Norfolk, United Kingdom) Clark oxygen electrode. Carotid artery rings approximately 0.2 cm long were vigorously rubbed to remove the endothelial cells and were added to the water-jacketed chambers containing PSS at 37° C. The rates of oxygen consumption were measured before and after the addition of crude mixture of the BR oxidative degradation products (final concentration 1 mg/mL of PSS), CSFSAH (final dilution 1/30) or 4-methyl-3-vinylmaleimide (purified on HPLC, freeze-dried and then re-dissolved in PSS). […]

Data set [2] is described as follows: Heat stability judged by HPLC. The note with it: 60° C. for 2 h.
In data set [3] the test system is porcine carotid artery rings. Kind of data set: Isometric force measurement on porcine carotid artery rings. As to the method: Isometric force measurement were performed on porcine carotid artery rings to assess functional parameters during exposure to various compounds. The methods used were those used by J F Clark et al., J. Vasc. Res., 1995, 32. 24-30. KCl induced contraction is used as maximal isometric tension generation and results are reported as percentage of KCl maxima obtained for each carotid.

For the compound `C=CC1=C(C)C(=O)NC1=CC(N)=O` [Box A, 4-methyl-5-oxo-3-vinyl-(1,5-dihydropyrrol-2-ylidene)acetamide], in data set [1], the “1H NMR analysis after sunlight exposure” value was “degradation to a number of products” and the “intensity of HPLC peaks after exposure to sunlight” value (“intensity of HPLC peaks” for short) is “significantly decreased”.
`C=CC1=C(C)C(=O)NC1=O` [4-methyl-3-vinylmaleimide]: in the data set on porcine carotid artery, the “stimulation of oxygen consumption (in words)” value is “stimulated oxygen consumption”. Also, in data set [1], the “intensity of HPLC peaks” value is given as “significantly decreased”. Moreover, the heat stability result in data set [2] was “relatively heat-stable”.
As to `C=CC1=C(C)C(=CC(N)=O)NC1=O` [Box B, 3-methyl-5-oxo-4-vinyl-(1,5-dihydropyrrol-2-ylidene)acetamide], in data set [1], the “1H NMR analysis after sunlight exposure” value is on record as “degradation to a number of products” and the “intensity of HPLC peaks” value is recorded as “significantly decreased”.
For `CC(CCc1ccc(O)cc1)NCCc1ccc(O)c(O)c1` (centres unmarked) [dobutamine], the “effect of pre-treatment on tension development induced by ox-BR and CSF-SAH” value in data set [3] is on record as “abrogated”.
